# Results: patent publication US9428505B2, “Hydantoin derivative” (Chugai Seiyaku Kabushiki Kaisha, priority 2012, dated 2016)
# Tests used:
# human PTH1R = human PTH1R (Homo sapiens (Human), UniProt Q03431); experiment: In vitro cAMP signal activity via the human PTH1R (HKRK-B7 cells); type: cell-based; details: 100 nM human PTH(1-34) = 100%; for EC50: concentration giving 50% cAMP signaling activity; for EC20: concentration giving 20% cAMP signaling activity
# Method: Measurement of In Vitro cAMP Signal Activity of Compounds Via the Human PTH1R
# Human PTH(1-34) and calcitonin were purchased from Peptide Institute, Inc. (Osaka, Japan), dissolved in 10 mM acetic acid to 1 mM and stored in a −80° C. freezer.
# Cells were cultured in Dulbecco's modified Eagle's medium (DMEM) supplemented with 10% fetal bovine serum (Hyclone), 100 units/ml penicillin G and 100 μg/ml streptomycin sulfate (Invitrogen Corp) at 37° C. in a humidified atmosphere containing 5% CO2.
# cAMP signal transduction analysis utilized LLC-PK1 cells not expressing the PTH1R, and HKRK-B7 cells, that is, LLC-PK1 cells overexpressing the human PTH1R at 9.5×10^5 receptors/cell (Takasu et al., J. Bone. Miner. Res. 14:11-20, 1999).
# HKRK-B7 or LLC-PK1 cells were seeded into a 96-well plate at 1×10^5 cells/well and incubated overnight. On the following day, 50 μl of cAMP assay buffer (DMEM, 2 mM IBMX, 0.2 mg/ml bovine serum albumin, 35 mM Hepes-NaOH, pH 7.4) containing human PTH(1-34) or each compound was added and the plate was placed in a 37° C. incubator. The cells were incubated for 20 minutes. After removing the medium, the cells were washed with 100 μl of cAMP assay buffer once. The plate was placed on dry ice powder to freeze the cells and then removed from the dry ice. The cells were lysed with 40 μl of 50 mM HCl and frozen again on dry ice. The amount of intracellular cAMP produced was measured using a commercially available cAMP EIA kit (Biotrack cAMP EIA system, GE health care).
# Analyses were performed using a variable gradient S-shaped dose-response curve equation.
# [1] = Metabolic stability using human liver microsomes; type: in vitro ADME; details: pH 7.4; human liver microsomes 0.5 mg/mL, compound 1 μM, NADPH 1 mM, 37° C.; read-out: Clearance
# Method: Examination of Metabolic Stability Using Human Liver Microsomes
# In 0.1 M phosphate buffer (pH7.4), human liver microsomes were incubated with a compound or a comparative example in the coexistence of NADPH at 37° C. for a specified amount of time. The concentration of the parent compound at each reaction time was measured using LC/MS/MS, and inherent clearance (μL/min/mg protein) was calculated from the slope of the reaction time versus residual rate.
# (§1) Compound concentration: 1 μM
# Reaction time: 0, 5, 15, and 30 minutes
# [2] = Metabolic stability using rat hepatocyte; type: in vitro ADME; details: for hepatocyte CLint at 1 μM: rat (SD, female) hepatocytes 1×10^6 cells/mL, compound 1 μM, 37° C., read-out: Clearance; for rat hepatocyte metabolic stability compared to Comparative Examples 1, 2, 3, 5, and 6: rat hepatocytes
# Method: Examination of Metabolic Stability Using Rat Hepatocyte
# Liver cells were prepared from the liver of rats (SD, female) by a collagenase perfusion method. A compound of the Examples or a Comparative Example was added, and this was incubated at 37° C. for a specified amount of time, followed by addition of a reaction-stopping solution. The concentration of the parent compound at each reaction time was measured using LC/MS/MS, and inherent clearance (μL/10^6 cells/min) was calculated from the slope of the reaction time versus residual rate.
# Cell concentration: 1×10^6 cells/mL
# as §1
# Medium: Williams' medium E
# Reaction-stopping solution: acetonitrile/2-propanol (4/6, v/v)
# TPTX rat model = experiment: Calcemic action in the TPTX rat model; type: in vivo; details: TPTX rats, oral 30 mg/kg; for change of serum Ca concentration from the Pre-value: up to 24 hours after administration
# Method: Calcemic Action in the TPTX Rat Model
# Four-week old female Crl:CD(SD) rats were obtained from Charles River Japan (Atsugi Breeding Center), and were acclimated to standard laboratory conditions of 20-26° C. and 35-75% humidity for one week. The rats were given tap water and were fed ad libitum with standard rodent chow (CE-2) (CLEA Japan, Inc.) containing 1.1% calcium, 1.0% phosphoric acid, and 250 IU/100 g of vitamin D3.
# TPTX was performed on five-week old rats. Some of the individuals were subjected to sham operation (Sham). Individuals whose serum Ca concentration was less than 8 mg/dL on four days after the operation were selected for use as TPTX rats. On five days after the operation, the rats were assigned to eight TPTX groups and one Sham group (n=5, each group) based on their body weight and serum Ca concentration measured on four days after the operation. The solvent alone was orally administered to the Sham group and the TPTX-Vehicle group at a volume of 10 mL/kg. Each test article was orally administered individually to each TPTX test article group by dissolving it in a solvent at a dose of 30 mg/10 mL/kg. The solvent composition was 10% dimethylsulfoxide (Wako Pure Chemical Industries, Ltd.), 10% Cremophor EL (Sigma-Aldrich Japan LLC), 20% hydroxypropyl-β-cyclodextrin (Nihon Shokuhin Kako Co., Ltd.), glycine (Wako Pure Chemical Industries, Ltd.); and the pH was adjusted to 10. Immediately before administration of each sample, Pre-blood collection was performed, and blood collection was carried out at 2, 6, 10, and 24 hours after administration to measure the serum Ca concentration. Each blood collection was carried out from the jugular vein under isoflurane inhalation anesthesia.
# Serum Ca measurement: Serum obtained by centrifugation from the collected blood was measured by using an automatic analyzer TBA-120FR (Toshiba Medical Systems Corporation).
# For statistical analysis of the animal studies, data are shown as mean±standard error (SE). Statistical analysis were performed by unpaired test of the SAS Preclinical Package (Ver. 5.00.010720, SAS Institute Japan, Tokyo, Japan).
# Chain of human PTH1R (Q03431 27-593): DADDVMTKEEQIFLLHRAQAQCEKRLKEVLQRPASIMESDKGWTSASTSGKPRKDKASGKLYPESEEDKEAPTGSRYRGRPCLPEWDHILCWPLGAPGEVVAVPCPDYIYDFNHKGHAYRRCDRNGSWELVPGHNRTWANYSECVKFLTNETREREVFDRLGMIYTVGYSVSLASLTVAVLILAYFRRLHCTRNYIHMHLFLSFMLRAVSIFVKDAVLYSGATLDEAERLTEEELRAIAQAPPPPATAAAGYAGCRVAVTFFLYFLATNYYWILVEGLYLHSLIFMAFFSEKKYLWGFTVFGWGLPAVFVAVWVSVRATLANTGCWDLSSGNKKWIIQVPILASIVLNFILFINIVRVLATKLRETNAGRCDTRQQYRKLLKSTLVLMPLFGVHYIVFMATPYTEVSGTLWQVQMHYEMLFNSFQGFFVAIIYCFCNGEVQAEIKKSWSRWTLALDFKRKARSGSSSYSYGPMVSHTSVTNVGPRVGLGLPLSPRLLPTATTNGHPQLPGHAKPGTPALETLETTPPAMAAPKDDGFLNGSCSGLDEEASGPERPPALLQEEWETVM
Structure (SMILES),EC50 (human PTH1R) [µM],microsomal CLint at 1 μM [1] [µL/min/mg],hepatocyte CLint at 1 μM [2] [µL/min/1e6 cells],EC20 (human PTH1R) [µM],achievement of therapeutic target range of serum Ca concentration of 7.6 to 8.8 mg/dL (TPTX rat model),change of serum Ca concentration from the Pre-value (TPTX rat model),"rat hepatocyte metabolic stability compared to Comparative Examples 1, 2, 3, 5, and 6 [2]"
"CC[C@H]1CC[C@H](C2=NC3(CCN(S(=O)(=O)CCc4ccc(N5C(=O)NC(=O)C5C)cc4C)CC3)C(=O)N2)CC1 (some centres unmarked) [Comparative Example 5, reference compound]",25,,,,,,
"Cc1cc(N2C(=O)CNC2=O)cc(C)c1CCS(=O)(=O)N1CCC2(CC1)N=C(c1cccc(OC(F)(F)F)c1)NC2=O [Comparative Example 2, reference compound]",13,61,5.9,3.1,could not be achieved,smaller positive changes from the Pre-value,
"CCC1CCC(C2=NC3(CCN(S(=O)(=O)CCc4ccc(N5C(=O)NC(=O)C5(C)C)cc4C)CC3)C(=O)N2)CC1 (centres unmarked) [Comparative Example 6, reference compound]",,154,22,3.6,,,
"Cc1cc(N2C(=O)CNC2=O)cc(C)c1CCS(=O)(=O)N1CCC2(CC1)N=C(c1ccc(F)c(C(F)(F)F)c1)NC2=O [Comparative Example 3, reference compound]",9,74,22,2.0,,,
"CC[C@H]1CC[C@H](C2=NC3(CCN(S(=O)(=O)CCc4ccc(N5C(=O)NC(=O)C5(C)C)cc4C)CC3)C(=O)N2)CC1 [Comparative Example 6, reference compound]",32,,,,,,
"CCC1CCC(C2=NC3(CCN(S(=O)(=O)CCc4ccc(N5CC(=O)NC5=O)cc4C)CC3)C(=O)N2)CC1 (centres unmarked) [Comparative Example 4, reference compound]",,74,,>505,,,
"Cc1cc(N2C(=O)NC(=O)C2(C)C)cc(C)c1CCS(=O)(=O)N1CCC2(CC1)N=C(c1ccc3c(c1)OC(F)(F)O3)NC2=O [Compound 5, 1-(4-(2-((2-(2,2-difluorobenzo[d][1,3]dioxol-5-yl)-4-oxo-1,3,8-triazaspiro[4.5]deca-1-en-8-yl)sulfonyl)ethyl)-3,5-dimethylphenyl)-5,5-dimethylimidazolidine-2,4-dione]",8.1,37,1,1.7,,,increased
"Cc1cc(N2C(=O)NC(=O)C2(C)C)cc(C)c1CCS(=O)(=O)N1CCC2(CC1)N=C(c1cccc(Br)c1)NC2=O [Compound 2, 1-(4-(2-((2-(3-bromophenyl)-4-oxo-1,3,8-triazaspiro[4.5]deca-1-en-8-yl)sulfonyl)ethyl)-3,5-dimethylphenyl)-5,5-dimethylimidazolidine-2,4-dione]",14,38,3,2.4,,,increased
"Cc1cc(N2C(=O)NC(=O)C2(C)C)cc(C)c1CCS(=O)(=O)N1CCC2(CC1)N=C(c1ccc(F)c(C(F)(F)F)c1)NC2=O [Compound 3, 1-(4-(2-((2-(4-fluoro-3-(trifluoromethyl)phenyl)-4-oxo-1,3,8-triazaspiro[4.5]deca-1-en-8-yl)sulfonyl)ethyl)-3,5-dimethylphenyl)-5,5-dimethylimidazolidine-2,4-dione]",,29,17,,,,
"Cc1cc(N2C(=O)NC(=O)C23CCN(C)CC3)cc(C)c1CCS(=O)(=O)N1CCC2(CC1)N=C(c1ccc(OC(F)(F)F)cc1)NC2=O [Compound 9, 1-(3,5-dimethyl-4-(2-((4-oxo-2-(4-(trifluoromethoxy)phenyl)-1,3,8-triazaspiro[4.5]deca-1-en-8-yl)sulfonyl)ethyl)phenyl)-8-methyl-1,3,8-triazaspiro[4.5]decane-2,4-dione]",12,28,1.8,2.6,,,increased
"Cc1cc(N2C(=O)NC(=O)C2(C)C)cc(C)c1CCS(=O)(=O)N1CCC2(CC1)N=C(c1cccc(C(F)(F)F)c1)NC2=O [Compound 6, 1-(3,5-dimethyl-4-(2-((4-oxo-2-(3-(trifluoromethyl)phenyl)-1,3,8-triazaspiro[4.5]deca-1-en-8-yl)sulfonyl)ethyl)phenyl)-5,5-dimethylimidazolidine-2,4-dione]",9,29,1.4,2.0,achieved the therapeutic target range,large positive changes from the Pre-value,
"Cc1cc(N2C(=O)NC(=O)C2(C)C)cc(C)c1CCS(=O)(=O)N1CCC2(CC1)N=C(c1ccc(OC(F)(F)F)c(F)c1)NC2=O [Compound 4, 1-(4-(2-((2-(3-fluoro-4-(trifluoromethoxy)phenyl)-4-oxo-1,3,8-triazaspiro[4.5]deca-1-en-8-yl)sulfonyl)ethyl)-3,5-dimethylphenyl)-5,5-dimethylimidazolidine-2,4-dione]",7.4,27,2.2,1.6,,,increased
"CCC1CCC(C2=NC3(CCN(S(=O)(=O)CCc4ccc(N5C(=O)NC(=O)C5C)cc4C)CC3)C(=O)N2)CC1 (centres unmarked) [Comparative Example 5, reference compound]",,112,22,3.1,,,
"Cc1cc(N2C(=O)NC(=O)C23CCCC3)cc(C)c1CCS(=O)(=O)N1CCC2(CC1)N=C(c1cccc(C(F)(F)F)c1)NC2=O [Compound 12, 1-(3,5-dimethyl-4-(2-((4-oxo-2-(3-(trifluoromethyl)phenyl)-1,3,8-triazaspiro[4.5]deca-1-en-8-yl)sulfonyl)ethyl)phenyl)-1,3-diazaspiro[4.4]nonane-2,4-dione]",,63,,,,,
"CC[C@H]1CC[C@H](C2=NC3(CCN(S(=O)(=O)CCc4ccc(N5CC(=O)NC5=O)cc4C)CC3)C(=O)N2)CC1 [Comparative Example 4, reference compound]",> 1000,,,,,,
